Experiments:
[1] = Rat PK after single IV or SC RE104 HCl 2 mg/kg (Example 1); details: plasma, sc, 2 mg/kg
in vivo = details: male, beagle, dog, plasma
Description: Two consecutive doses were separated by z7 days. Plasma samples were analyzed using an LC-MS/MS method (lower limit of quantification of 1.00 ng/mL for both analytes).
Pharmacokinetic parameters were calculated using Phoenix WinNonlin, version 6.3 or 8.2 (Certara, Princeton, NJ, USA).
For dog PK assessments, approximately 0.5 mL of blood was collected via superficial vein before dose and at 5 (for IV and SC injections only), 15, and 30 minutes and 1, 2, 4, 8, 16, 24, 48, and 72 hours post dose into tubes containing K2EDTA with 10 mM Dichlorvos as the anticoagulant and stabilizer, respectively.

healthy females [2] = test: Phase 1 FIH study: Mystical Experience Questionnaire (MEQ30); type: in vivo, human
Description: (§1) The study was a double-blind, randomized, placebo-controlled Phase 1 single ascending dose study in up to 6 cohorts in healthy females. Eligibility was assessed during a screening period of up to 28 days prior to enrollment. For the treatment period, subjects were admitted to the clinical research unit (CRU) one day prior to the dosing (Day −1). On Day 1, all subjects will received the assigned SC dose of RE104 HCl or placebo in a fed state (after domiciling overnight and consuming a planned evening meal on Day −1 and morning meal on Day 1 while at the CRU). Subjects were allowed to select snacks from a planned menu from 4 hours following dosing. Subjects were discharged from the clinic on Day 2 (−24 hours post-dose) after all required study procedures were completed and if deemed medically fit. Subjects returned to the clinic on Day 10 (±2 days) for a follow up visit.
The Mystical Experience Questionnaire (MEQ30) is a validated questionnaire that assesses individual episodes of a mystical experience produced by classic hallucinogens (Barrett et al. 2015). The validated MEQ30 uses thirty questions across 4 areas of experience: (i) Mystical (including items concerning internal unity, external unity, noetic quality, and sacredness); (ii) Positive mood; (iii) Transcendence of time and space; and (iv) Ineffability. The subjects will be asked to rate each item of the MEQ30 on a 6-point scale. FIG. 3 sets out the revised MEQ30 that was used.

[3] = Conversion in aqueous solution; type: physicochemical; details: as a function of pH
[4] = Prodrug cleavage in mouse plasma; type: in vitro ADME; details: 37° C.
Description: (§2) Mean values from 3 replicate assays are reported. See the Supplemental Methods for additional details.
(§3) Triplicate aliquots (50 μL) of each spiked plasma solution were immediately added to 200 μL of ice-cold methanol/acetonitrile solution (50:50 v/v) containing the internal standards to generate time zero samples. Spiked plasma solutions were incubated at 37° C. in an orbital shaker set to 75 rpm, and 50-μL samples were taken in triplicate after 30 minutes and 1, 2, and 4 hours of incubation. Each sample was immediately added to 200 μL ofice-cold methanol/acetonitrile solution containing the internal standard(s) to terminate the reaction. Samples were mixed by vortex and then stored at −80° C. until analysis.
(§4) Calibration standards were prepared in plasma for each species and analyzed in batches by LC-MS/MS. Sample batches consisted of 3 replicates of a system suitability standard (containing the analyte and internal standard), the appropriate calibration standards in ascending order including a blank sample without internal standard, a zero sample (with internal standard), and at least 6 nonzero standards and the assay samples, followed by the 3 replicates of the system suitability sample.

rat hepatocytes = test: Hepatocyte intrinsic clearance, rat; type: in vitro ADME
Excerpt: In human, rat, rabbit, dog and monkey hepatocytes, the metabolite profile of RE104 was qualitatively similar across these species with only minor differences.

male Wistar rats = test: Forced swim test (FST) in rats; type: in vivo, rat
[5] = Prodrug cleavage in rat plasma; type: in vitro ADME; details: 37° C.
Description: as §2, §3, §4

[6] = target: human recombinant 5-HT2B receptors (Homo sapiens, UniProt P41595); test: 5-HT2B agonist radioligand binding assay ([125I]DOI)
Sequence of human recombinant 5-HT2B receptors (P41595 whole entry): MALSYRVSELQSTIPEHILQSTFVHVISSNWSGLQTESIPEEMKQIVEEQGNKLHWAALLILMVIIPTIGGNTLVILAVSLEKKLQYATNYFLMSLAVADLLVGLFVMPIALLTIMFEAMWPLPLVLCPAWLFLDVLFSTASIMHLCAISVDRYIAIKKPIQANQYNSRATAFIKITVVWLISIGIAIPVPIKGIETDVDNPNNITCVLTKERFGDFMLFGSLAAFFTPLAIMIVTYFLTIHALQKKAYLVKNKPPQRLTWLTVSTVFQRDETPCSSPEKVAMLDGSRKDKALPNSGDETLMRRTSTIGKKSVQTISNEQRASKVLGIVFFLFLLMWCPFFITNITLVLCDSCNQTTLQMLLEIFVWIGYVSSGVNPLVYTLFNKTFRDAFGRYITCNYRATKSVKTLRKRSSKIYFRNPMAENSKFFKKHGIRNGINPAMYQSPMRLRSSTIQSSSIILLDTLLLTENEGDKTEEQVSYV
Description: (§5) Increasing concentrations of RE104 were incubated with 0.2 nM [^125I]DOI in CHO cell cultures expressing human recombinant 5-HT2B receptors.
(§6) Radioligand concentration was measured by scintillation counting; compound binding was calculated as percent inhibition of the binding of [^125I]DOI. In agonist activity assays, test concentrations of RE104 were incubated with HEK-293 cells expressing human recombinant 5-HT2A receptors; IP1 production was detected using homogeneous time-resolved fluorescence. Activation was calculated as a percentage of the response to the positive control (10 μM 5-HT).
(§7) Inhibition constants were calculated by using the Cheng-Prusoff equation Ki=IC50/(1+L/KD), where L=radioligand concentration and KD=radioligand affinity for the receptor (determined with a Scatchard plot). In the functional activity assay test concentrations of RE104 were 10 nM, 30 nM, 100 nM, 300 nM, 1 μM, 3 μM, 10 μM, and 30 μM. EC50 and IC50 values were determined by nonlinear regression analysis of the concentration-response curves generated with mean replicate values using Hill equation curve fitting.

[7] = target: human recombinant 5-HT2A receptors (Homo sapiens, UniProt P28223); test: 5-HT2A agonist radioligand binding assay ([125I]DOI)
Sequence of human recombinant 5-HT2A receptors (P28223 whole entry): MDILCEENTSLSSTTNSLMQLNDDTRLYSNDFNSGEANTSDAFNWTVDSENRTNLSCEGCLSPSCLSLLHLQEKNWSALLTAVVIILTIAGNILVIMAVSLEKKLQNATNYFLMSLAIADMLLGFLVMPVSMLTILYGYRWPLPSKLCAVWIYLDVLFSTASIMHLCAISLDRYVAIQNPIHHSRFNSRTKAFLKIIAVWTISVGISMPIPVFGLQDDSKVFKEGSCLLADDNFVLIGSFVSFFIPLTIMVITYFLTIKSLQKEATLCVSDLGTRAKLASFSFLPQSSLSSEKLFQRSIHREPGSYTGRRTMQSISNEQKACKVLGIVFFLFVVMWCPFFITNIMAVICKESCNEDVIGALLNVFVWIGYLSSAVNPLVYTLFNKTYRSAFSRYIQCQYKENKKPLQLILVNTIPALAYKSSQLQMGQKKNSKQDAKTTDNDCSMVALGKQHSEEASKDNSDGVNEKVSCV
Description: as §5, §6, §7

[8] = Phase 1 FIH study: plasma pharmacokinetics (LC-MS/MS); type: in vivo; details: human; for Cmax / Tmax / half-life: female, plasma; for half-life: read-out: t1/2, mean (converted)
Description: as §1
The concentrations of RE104 and isoprocin in plasma were determined using a validated Liquid chromatography tandem mass spectrometry (LC-MS/MS) assay.

healthy females [9] = test: Phase 1 FIH study: modified Drug Effect Questionnaire (DEQ-High); type: in vivo, human; parameters: mean time to peak DEQ-High score: dose or concentration left out as unconfirmed
Description: as §1
The Drug Effect Questionnaire (DEQ) Feel/High is widely used in studies of acute subjective response to a variety of substances, to assess two key aspects of subjective experience: (1) the strength of substance effects and (2) desirability of substance effects (Morean et al., 2013). The modified DEQ assesses the extent to which subjects (1) feel any substance effect(s) and (2) feel high. This version of the DEQ includes the following items: “Do you feel a drug effect right now?” (FEEL); “Are you high right now?” (HIGH). FIG. 2 sets out the modified DEQ that was used.
The modified DEQ was used as an 11-point numeric rating scale (0-10) administered by a qualified staff member. The subjects were asked to verbally respond to indicate how strongly they feel the drug effect and how high they feel on the scale of 0-10 after being administered the study drug (Kollltveit et al., 2020).

Compound: CC(C)N(CCc1c[nH]c2cccc(OC(=O)CCCC(=O)O)c12)C(C)C [RE104]
- bioavailability [1]: ~100%
- AUC(0-inf) (in vivo; po, 5 mg/kg): 21.8 ng·h/mL
- AUC(0-t) (in vivo; po, 5 mg/kg): 20 ng·h/mL
- Cmax (in vivo; po, 5 mg/kg): 12.2 ng/mL
- Tmax (in vivo; po, 5 mg/kg): 30 min
- bioavailability (in vivo; po, 5 mg/kg): 0.854%
- half-life (in vivo; po, 5 mg/kg): 78 min
- AUC(0-t) (in vivo; sc, 1 mg/kg): 658 ng·h/mL
- Participants with MEQ total score ≥60% (healthy females [2]; RE104 5.5 mg, n 6): 0%
- Participants with MEQ total score ≥60% (healthy females [2]; RE104 11 mg, n 6): 50%
- Participants with MEQ total score ≥60% (healthy females [2]; RE104 22 mg, n 6): 16.7%
- Participants with MEQ total score ≥60% (healthy females [2]; RE104 33 mg, n 9): 66.7%
- Participants with MEQ total score ≥60% (healthy females [2]; RE104 38 mg, n 6): 83.3%
- Participants with MEQ total score ≥60% (healthy females [2]; RE104 44 mg, n 3): 100%
- conversion in aqueous solution [3]: slow conversion
- completeness of conversion [4]: > 95%
- time of conversion to 4-OH-DiPT [4]: < 30 min
- in vitro intrinsic clearance (CLint) (rat hepatocytes): 6.66 mL/hr/106 cells
- climbing as share of escape behaviors (male Wistar rats; rat FST, day 28): 45%
- swimming as share of escape behaviors (male Wistar rats; rat FST, day 28): 55%
- mean swimming time relative to vehicle (male Wistar rats; rat FST, single 1 mg/kg dose): significantly increased
- mean immobility time vs vehicle (male Wistar rats; rat FST, single 1 mg/kg dose, day 7, 14, and 28): significant decrease
- duration of distinctive serotonergic behaviors (male Wistar rats; rat, dosing day, 1 mg/kg): approximately 3 hours
- completeness of conversion [5]: > 95%
- time of conversion to 4-OH-DiPT [5]: < 30 min
- IC50 [6]: 0.74 µM
- Ki ([6]; read-out: binding Ki at the 5-HT2B receptor, CHO cells): 1.8 µM
- IC50 [7]: 1.6 µM
- Ki ([7]; read-out: binding Ki at the 5-HT2A receptor, radioligand inhibition binding, HEK-293 cells): 4.3 µM
- Cmax ([8]; RE104 dose 5.5 mg SC (n = 6)): 173 ng/mL
- Tmax ([8]; RE104 dose 5.5 mg SC (n = 6)): 25.2 min
- half-life ([8]; RE104 dose 5.5 mg SC (n = 6)): 31.8 min
- Cmax ([8]; RE104 dose 11 mg SC (n = 6)): 527 ng/mL
- Tmax ([8]; RE104 dose 11 mg SC (n = 6)): 19.8 min
- half-life ([8]; RE104 dose 11 mg SC (n = 6)): 28.8 min
- Cmax ([8]; RE104 dose 22 mg SC (n = 6)): 788 ng/mL
- Tmax ([8]; RE104 dose 22 mg SC (n = 6)): 22.8 min
- half-life ([8]; RE104 dose 22 mg SC (n = 6)): 30 min
- Cmax ([8]; RE104 dose 33 mg SC (n = 9)): 1460 ng/mL
- Tmax ([8]; RE104 dose 33 mg SC (n = 9)): 15 min
- half-life ([8]; RE104 dose 33 mg SC (n = 9)): 25.8 min
- Cmax ([8]; RE104 dose 38 mg SC (n = 6)): 1250 ng/mL
- Tmax ([8]; RE104 dose 38 mg SC (n = 6)): 22.8 min
- half-life ([8]; RE104 dose 38 mg SC (n = 6)): 38.4 min
- Cmax ([8]; RE104 dose 44 mg SC (n = 3)): 1800 ng/mL
- Tmax ([8]; RE104 dose 44 mg SC (n = 3)): 25.2 min
- half-life ([8]; RE104 dose 44 mg SC (n = 3)): 31.2 min
- time after administration by which not detectable in plasma ([8]; any dose): ≤ 5 h
- mean time to peak DEQ-High score (healthy females [9]): 1.1 h
- Mean Experience Duration (healthy females [9]; 33 mg): 3.7 h
- DEQ-High score, all participants (healthy females [9]; 4 hours post dose): 51

Reference: US20250319067A1, “Improved Pharmacokinetics of Tryptamine Prodrugs” (Reunion Neuroscience, Inc., priority 2023, published 2025)
